Experimental data from ChEMBL document CHEMBL2440076, “New triarylpyrazoles as broad-spectrum anticancer agents: design, synthesis, and biological evaluation” (Eur J Med Chem, 2013).

Columns and labels:
Type in all cases: functional
OVCAR-8 = assay: Growth inhibition of human OVCAR8 cells assessed as cell growth at 3X10'-7 M after 48 hrs by sulforhodamine B assay; settings: OVCAR-8, 48 h, read-out: Activity
HCT-15 = assay: Growth inhibition of human HCT15 cells assessed as cell growth at 3X10'-7 M after 48 hrs by sulforhodamine B assay; settings: HCT-15, 48 h, read-out: Activity
[1] = Growth inhibition of human HCC2998 cells assessed as cell growth at 3X10'-7 M after 48 hrs by sulforhodamine B assay; settings: HCC 2998, 48 h, read-out: Activity
NCI-H522 [2] = assay: Growth inhibition of human NCI-H522 cells assessed as cell growth at 3X10'-7 M after 48 hrs by sulforhodamine B assay; settings: NCI-H522, 48 h, read-out: Activity
NCI-H322M [3] = assay: Growth inhibition of human NCI-H322M cells assessed as cell growth at 3X10'-7 M after 48 hrs by sulforhodamine B assay; settings: read-out: Activity
BT-549 = assay: Growth inhibition of human BT549 cells assessed as cell growth at 3X10'-8 M after 48 hrs by sulforhodamine B assay; settings: BT-549, 48 h, read-out: Activity
ACHN [4] = assay: Growth inhibition of human ACHN cells assessed as cell growth at 3X10'-8 M after 48 hrs by sulforhodamine B assay; settings: read-out: Activity
[5] = Growth inhibition of human NCI-ADR-RES cells assessed as cell growth at 3X10'-8 M after 48 hrs by sulforhodamine B assay; settings: read-out: Activity
OVCAR-5 [6] = assay: Growth inhibition of human OVCAR5 cells assessed as cell growth at 3X10'-8 M after 48 hrs by sulforhodamine B assay; settings: OVCAR-5, 48 h, read-out: Activity
SK-MEL-2 = assay: Growth inhibition of human SK-MEL-2 cells assessed as cell growth at 3X10'-8 M after 48 hrs by sulforhodamine B assay; settings: SK-MEL-2, 48 h, read-out: Activity
MDA-MB-435 = assay: Growth inhibition of human MDA-MB-435 cells assessed as cell growth at 3X10'-8 M after 48 hrs by sulforhodamine B assay; settings: MDA-MB-435, 48 h, read-out: Activity
HT-29 = assay: Growth inhibition of human HT-29 cells assessed as cell growth at 3X10'-8 M after 48 hrs by sulforhodamine B assay; settings: HT-29, 48 h, read-out: Activity
[7] = Growth inhibition of human HCC2998 cells assessed as cell growth at 3X10'-8 M after 48 hrs by sulforhodamine B assay; settings: HCC 2998, 48 h, read-out: Activity
HOP-62 [8] = assay: Growth inhibition of human HOP62 cells assessed as cell growth at 3X10'-8 M after 48 hrs by sulforhodamine B assay; settings: HOP-62, 48 h, read-out: Activity
SR [9] = assay: Growth inhibition of human SR cells assessed as cell growth at 3X10'-8 M after 48 hrs by sulforhodamine B assay; settings: read-out: Activity
RXF 393 = assay: Growth inhibition of human RXF393 cells assessed as cell growth at 3X10'-5 M after 48 hrs by sulforhodamine B assay; settings: RXF 393, 48 h, read-out: Activity
OVCAR-5 [10] = assay: Growth inhibition of human OVCAR5 cells assessed as cell growth at 3X10'-5 M after 48 hrs by sulforhodamine B assay; settings: OVCAR-5, 48 h, read-out: Activity
UO-31 = assay: Growth inhibition of human UO31 cells assessed as cell growth at 3X10'-9 M after 48 hrs by sulforhodamine B assay; settings: UO-31, 48 h, read-out: Activity
OVCAR-5 [11] = assay: Growth inhibition of human OVCAR5 cells assessed as cell growth at 3X10'-9 M after 48 hrs by sulforhodamine B assay; settings: OVCAR-5, 48 h, read-out: Activity
OVCAR-4 = assay: Growth inhibition of human OVCAR4 cells assessed as cell growth at 3X10'-9 M after 48 hrs by sulforhodamine B assay; settings: OVCAR-4, 48 h, read-out: Activity
M14 = assay: Growth inhibition of human M14 cells assessed as cell growth at 3X10'-5 M after 48 hrs by sulforhodamine B assay; settings: M14, 48 h, read-out: Activity
SNB-19 [12] = assay: Growth inhibition of human SNB19 cells assessed as cell growth at 3X10'-5 M after 48 hrs by sulforhodamine B assay; settings: SNB-19, 48 h, read-out: Activity
[13] = Growth inhibition of human HCC2998 cells assessed as cell growth at 3X10'-5 M after 48 hrs by sulforhodamine B assay; settings: HCC 2998, 48 h, read-out: Activity
NCI-H23 [14] = assay: Growth inhibition of human NCI-H23 cells assessed as cell growth at 3X10'-5 M after 48 hrs by sulforhodamine B assay; settings: NCI-H23, 48 h, read-out: Activity
NCI-H322M [15] = assay: Growth inhibition of human NCI-H322M cells assessed as cell growth at 3X10'-5 M after 48 hrs by sulforhodamine B assay; settings: read-out: Activity
HOP-62 [16] = assay: Growth inhibition of human HOP62 cells assessed as cell growth at 3X10'-5 M after 48 hrs by sulforhodamine B assay; settings: HOP-62, 48 h, read-out: Activity
HL-60(TB) = assay: Growth inhibition of human HL-60(TB) cells assessed as cell growth at 3X10'-5 M after 48 hrs by sulforhodamine B assay; settings: HL-60, 48 h, read-out: Activity
MDA-MB-468 = assay: Growth inhibition of human MDA-MB-468 cells assessed as cell growth at 3X10'-6 M after 48 hrs by sulforhodamine B assay; settings: MDA-MB-468, 48 h, read-out: Activity
SNB-19 [17] = assay: Growth inhibition of human SNB19 cells assessed as cell growth at 3X10'-9 M after 48 hrs by sulforhodamine B assay; settings: SNB-19, 48 h, read-out: Activity
A549 = assay: Growth inhibition of human A549/ATCC cells assessed as cell growth at 3X10'-9 M after 48 hrs by sulforhodamine B assay; settings: A549, 48 h, read-out: Activity
ACHN [18] = assay: Growth inhibition of human ACHN cells assessed as cell growth at 3X10'-6 M after 48 hrs by sulforhodamine B assay; settings: read-out: Activity
UACC-62 = assay: Growth inhibition of human UACC62 cells assessed as cell growth at 3X10'-6 M after 48 hrs by sulforhodamine B assay; settings: UACC-62, 48 h, read-out: Activity
SF-295 = assay: Growth inhibition of human SF295 cells assessed as cell growth at 3X10'-6 M after 48 hrs by sulforhodamine B assay; settings: SF-295, 48 h, read-out: Activity
NCI-H522 [19] = assay: Growth inhibition of human NCI-H522 cells assessed as cell growth at 3X10'-6 M after 48 hrs by sulforhodamine B assay; settings: NCI-H522, 48 h, read-out: Activity
NCI-H23 [20] = assay: Growth inhibition of human NCI-H23 cells assessed as cell growth at 3X10'-6 M after 48 hrs by sulforhodamine B assay; settings: NCI-H23, 48 h, read-out: Activity
SR [21] = assay: Growth inhibition of human SR cells assessed as cell growth at 3X10'-6 M after 48 hrs by sulforhodamine B assay; settings: read-out: Activity
[22] = Growth inhibition of human Hs 578T cells assessed as cell growth at 3X10'-7 M after 48 hrs by sulforhodamine B assay; settings: read-out: Activity
SN12C = assay: Growth inhibition of human SN12C cells assessed as cell growth at 3X10'-7 M after 48 hrs by sulforhodamine B assay; settings: read-out: Activity

| SMILES | growth at 0.3 µM (OVCAR-8) [%] | growth at 0.3 µM (HCT-15) [%] | growth at 0.3 µM [1] [%] | growth at 0.3 µM (NCI-H522 [2]) [%] | growth at 0.3 µM (NCI-H322M [3]) [%] | growth at 0.03 µM (BT-549) [%] | growth at 0.03 µM (ACHN [4]) [%] | growth at 0.03 µM [5] [%] | growth at 0.03 µM (OVCAR-5 [6]) [%] | growth at 0.03 µM (SK-MEL-2) [%] | growth at 0.03 µM (MDA-MB-435) [%] | growth at 0.03 µM (HT-29) [%] | growth at 0.03 µM [7] [%] | growth at 0.03 µM (HOP-62 [8]) [%] | growth at 0.03 µM (SR [9]) [%] | growth at 30 µM (RXF 393) [%] | growth at 30 µM (OVCAR-5 [10]) [%] | growth at 0.003 µM (UO-31) [%] | growth at 0.003 µM (OVCAR-5 [11]) [%] | growth at 0.003 µM (OVCAR-4) [%] | also measured |
| --- | --- | --- | --- | --- | --- | --- | --- | --- | --- | --- | --- | --- | --- | --- | --- | --- | --- | --- | --- | --- | --- |
| COc1cc(-c2nn(-c3cccc(NC(=O)c4ccc(Cl)c(C(F)(F)F)c4)c3)cc2-c2ccncc2)ccc1Cl | 93 | 94 | 101 | 89 | 92 | 96 | 100 | 94 | 96 | 100 | 97 | 99 | 95 | 96 | 98 | -11 | 68 | 82 | 96 | 98 | growth at 30 µM (M14): 19%; growth at 30 µM (SNB-19 [12]): 29%; growth at 30 µM [13]: 29%; growth at 30 µM (NCI-H23 [14]): 17%; growth at 30 µM (NCI-H322M [15]): 34%; growth at 30 µM (HOP-62 [16]): 35%; growth at 30 µM (HL-60(TB)): 23%; growth at 3 µM (MDA-MB-468): 52%; growth at 0.003 µM (SNB-19 [17]): 95%; growth at 0.003 µM (A549): 96%; growth at 3 µM (ACHN [18]): 47%; growth at 3 µM (UACC-62): 40%; growth at 3 µM (SF-295): 27%; growth at 3 µM (NCI-H522 [19]): 12%; growth at 3 µM (NCI-H23 [20]): 59%; growth at 3 µM (SR [21]): 5%; growth at 0.3 µM [22]: 82%; growth at 0.3 µM (SN12C): 93% |
| O=C(Nc1cccc(-n2cc(-c3ccncc3)c(-c3ccc(Cl)c(O)c3)n2)c1)Nc1ccc(Cl)c(C(F)(F)F)c1 | 89 | 84 | 95 | 82 | 95 | 106 | 98 | 102 | 85 | 113 | 94 | 107 | 102 | 100 | 104 | -49 | -14 | 94 | 93 | 99 | growth at 30 µM (M14): -39%; growth at 30 µM (SNB-19 [12]): -42%; growth at 30 µM [13]: -64%; growth at 30 µM (NCI-H23 [14]): -55%; growth at 30 µM (NCI-H322M [15]): -58%; growth at 30 µM (HOP-62 [16]): -17%; growth at 30 µM (HL-60(TB)): 6%; growth at 3 µM (MDA-MB-468): -27%; growth at 0.003 µM (SNB-19 [17]): 96%; growth at 0.003 µM (A549): 98%; growth at 3 µM (ACHN [18]): 8%; growth at 3 µM (UACC-62): -48%; growth at 3 µM (SF-295): -22%; growth at 3 µM (NCI-H522 [19]): -11%; growth at 3 µM (NCI-H23 [20]): 1%; growth at 3 µM (SR [21]): -10%; growth at 0.3 µM [22]: 76%; growth at 0.3 µM (SN12C): 91% |
